In US8709451B2, “Stable nanoemulsions for ultrasound-mediated drug delivery and imaging” (University of Utah Research Foundation, priority 2010, dated 2014):

How the values were obtained:
[1] = test system: A2780 ovarian cancer cells; assay: Confocal imaging of DOX uptake by substrate-attached cells without ultrasound; type: cell-based; conditions: no ultrasound, 20 μg/mL DOX
Description: A2780 cells were grown on cover glass in an 8 well cover glass chamber (LabTek chambered cover glass, NUNC, Rochester, N.Y.), and incubated with either, DOX dissolved in PBS, DOX-loaded 1.4% PEG-PCL micelle solution, or DOX-loaded 1% PFCE or PFP emulsions. Hoechst 33258 (Sigma Aldrich, St Louis, Mo.) stain was used to identify the nuclei of the A2780 cancer cells. Confocal fluorescent images of the cells were obtained using inverted confocal microscope (Olympus IX81, Olympus America Inc., Center Valley, Pa.); and the images were processed using ImageJ software. Emission filters of 570 nm for DOX and 480 nm for Hoechst were selected for imaging. In some experiments, DAPI was added to stain the cells before incubation with DOX and ultrasound exposure as discussed below.
A2780 drug sensitive cells, grown on chambered cover slip were incubated with different DOX formulations and confocal fluorescent images were obtained (FIGS. 14 and 15). Different image slices of the cell layer attached to the cover slip were recorded at an incremental step of 0.5 μm depth from the bottom to top of the cell layer (z-direction). The images recorded were stacked in z-direction and processed using ImageJ. The brightness and contrast ratios of magnified insets of the images were modified to reveal the intracellular distribution of fluorescence. […]
DOX fluorescence inside the cells was characterized by the R/G ratio where R is the intensity of red color and G is that of green color at the same region of interest (ROI) inside the cells. This ratio is used because DOX absorbs green light that ignites its red fluorescence. The R and G values and ratios were measured using ImageJ software.
The red/green (R/G) ratio of the fluorescence inside the cells and R/G ratio of the background fluorescence from the cover slip were measured. […] The cells incubated with either PFCE or PFP droplets have lower fluorescence (R/G ratios of 0.31 and 0.14 for PFCE and PFP respectively) than the cells incubated with DOX in micellar solution (R/G ratio of 0.63). […]

[2] = test system: A2780 ovarian cancer cells; assay: Sonication of suspended cells with DOX formulations, confocal imaging; type: cell-based; conditions: 3-MHz CW ultrasound, DOX 10 μg/mL
Description: A2780 cells were lifted off the culture T-flasks with 1× Trypsin (0.25% trypsin, 0.02% EDTA, Sigma Aldrich, St Louis, Mo.). The cells were resuspended in media. This suspension was mixed 2:1 volume ratio with DOX-containing formulations with typical cell concentrations of 5.7×10^6 cells/mL. Two types of DOX solutions in PBS were used: hydrophilic hydrochloride salt DOX-HCl (20 μg/mL) or deprotonated DOX; the concentration in PBS was 20 μg/mL for either molecule. DOX formulations included deprotonated DOX incorporated in 1.4% PEG-PCL micellar solution or DOX incorporated in 1% PFCE or PFP PEG-PCL emulsion; DOX concentration was the same as in PBS solutions (20 μg/mL). […] Pressure was measured using ONDA needle hydrophone (Onda HNR-0500) (calibrated in October, 2009) placed in front of the probe with a distance of 0.5 cm from the probe. […] After ultrasound treatments, a droplet of the cell suspension was placed on a glass slide, and the fluorescence inside the cells was observed and quantified using confocal microscope as described above. […]

Compound: COc1cccc2c1C(=O)c1c(O)c3c(c(O)c1C2=O)C[C@@](O)(C(=O)CO)C[C@@H]3O[C@H]1C[C@H](N)[C@H](O)[C@H](C)O1.Cl [hydrophilic DOX, doxorubicin]
- DOX penetration into cell nuclei [1]: red fluorescence in the nuclei

Compound: COc1cccc2c1C(=O)c1c(O)c3c(c(O)c1C2=O)C[C@@](O)(C(=O)CO)C[C@@H]3O[C@H]1C[C@H](N)[C@H](O)[C@H](C)O1 [deprotonated DOX, doxorubicin]
- DOX penetration into cell nuclei [1]: did not get into the nuclei
- cellular uptake of DOX [1]: low cellular uptake
- effect of ultrasound on DOX penetration into cell nuclei [2]: marginal
